The text below walks through data of PMC8755562 (European Journal of Medicinal Chemistry, 2022).

In this test the target is recombinant human (rh)ACE2 (Homo sapiens, UniProt Q9BYF1). As to the kind of experiment: fluorogenic exopeptidase assay. The test is classed as biochemical.
Chain of recombinant human (rh)ACE2 (Q9BYF1 18-740 limits assumed): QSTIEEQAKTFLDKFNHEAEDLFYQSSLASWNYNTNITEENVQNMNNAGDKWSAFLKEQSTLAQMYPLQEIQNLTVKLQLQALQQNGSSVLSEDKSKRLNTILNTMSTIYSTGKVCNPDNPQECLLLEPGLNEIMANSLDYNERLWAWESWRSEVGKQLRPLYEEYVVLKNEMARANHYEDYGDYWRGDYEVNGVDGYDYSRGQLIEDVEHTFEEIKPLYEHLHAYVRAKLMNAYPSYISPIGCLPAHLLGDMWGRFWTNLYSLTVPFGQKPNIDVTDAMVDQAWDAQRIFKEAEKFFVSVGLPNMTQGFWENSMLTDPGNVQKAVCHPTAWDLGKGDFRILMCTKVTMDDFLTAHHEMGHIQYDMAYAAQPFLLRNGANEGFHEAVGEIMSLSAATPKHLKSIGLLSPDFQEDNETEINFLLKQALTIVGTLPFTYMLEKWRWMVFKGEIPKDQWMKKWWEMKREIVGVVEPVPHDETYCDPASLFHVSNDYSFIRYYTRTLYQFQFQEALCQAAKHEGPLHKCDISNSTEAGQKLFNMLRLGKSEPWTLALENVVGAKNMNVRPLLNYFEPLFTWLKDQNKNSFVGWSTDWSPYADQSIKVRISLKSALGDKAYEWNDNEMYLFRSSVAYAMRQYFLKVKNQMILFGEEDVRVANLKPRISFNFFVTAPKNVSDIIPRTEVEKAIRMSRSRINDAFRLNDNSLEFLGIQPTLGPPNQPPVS

With `CC(C)C[C@H](N[C@@H](Cc1cncn1Cc1cc(Cl)cc(Cl)c1)C(=O)O)C(=O)O` [MLN-4760], the IC50 is 29.7 nM.

`CC(C)C[C@H](N[C@@H](Cc1cncn1Cc1ccc(N)cc1)C(=O)O)C(=O)O` [compound 1, (S)-2-(((S)-2-(1-(4-aminobenzyl)-1H-imidazol-5-yl)-1-carboxyethyl)amino)-4-methylpentanoic acid]: the IC50 is 11.3 nM.
